For series [1], the system named is GABAA receptor. The settings on record: cited from earlier work; for GABAA receptor activity in cells: cell experiments.
For series [2] the following is noted: preclinical data; cited from earlier work.
For series [3] the following is noted: rodents; cited from earlier work.
Series [4] relates to GABAA receptor. The settings on record: cited from earlier work.
For series [5] the following is noted: cited from earlier work.
The next series has as its target T1, SSADH (Homo sapiens, UniProt P51649).
T1 sequence (P51649 48-535): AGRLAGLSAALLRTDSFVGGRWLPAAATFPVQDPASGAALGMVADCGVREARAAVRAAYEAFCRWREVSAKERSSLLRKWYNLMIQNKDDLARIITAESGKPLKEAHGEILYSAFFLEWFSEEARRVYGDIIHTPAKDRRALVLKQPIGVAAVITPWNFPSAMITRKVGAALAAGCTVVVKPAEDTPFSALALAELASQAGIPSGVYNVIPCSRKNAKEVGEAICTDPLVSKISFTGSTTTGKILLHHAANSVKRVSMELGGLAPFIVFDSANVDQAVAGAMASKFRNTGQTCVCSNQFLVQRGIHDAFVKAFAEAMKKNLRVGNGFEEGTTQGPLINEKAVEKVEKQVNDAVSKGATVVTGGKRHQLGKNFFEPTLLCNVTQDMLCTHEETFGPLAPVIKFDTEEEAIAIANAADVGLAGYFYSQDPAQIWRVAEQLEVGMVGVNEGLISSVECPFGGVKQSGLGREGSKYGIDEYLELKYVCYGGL
The note with it: cited from earlier work.

The nature of series [6]: Clinical study 1: modified Hamilton Anxiety Rating Scale. The series is classed as in vivo, humans. The settings on record: responders n=10; placebo 15. From the text: FIGS. 8A-8C are graphs showing the CBD formulation Decreasing Anxiety. At the end of each treatment period, study participants completed a clinically-validated survey entitled the Hamilton Anxiety Rating Scale^29. Each item in this rating scale is scored on a scale of 0 (not present) to 4 (severe), with a total score range of 0-53, where <14 indicates mild severity, 15-21 mild to moderate severity, and 22-27 moderate to severe. Based on this survey, the CBD formulation decreases anxiety in participants DR13 (FIG. 8A), DR16 (FIG. 8B), and DR21 (FIG. 8C) relative to the placebo control or CBD alone.
FIG. 9A is a graph showing the CBD formulation decreases Anxiety in “Responders”. […] Each item in this rating scale is scored on a scale of 0 (not present) to 4 (severe), with a total score range of 0-53, where <14 indicates mild severity, 15-21 mild to moderate severity, and 22-27 moderate to severe. […]
To measure the effects of the CBD formulation on anxiety, study participants completed a modified version of the Hamilton Anxiety Rating Scale, one of the first rating scales developed to measure the severity of anxiety symptoms that is widely used in clinical and research settings^29. […] Each item is scored on a scale of 0 (not present) to 4 (severe), with a total score range of 0-53, where <14 indicates mild severity, 15-21 mild to moderate severity, and 22-27 moderate to severe.

Series [7] in a line: Clinical study 1 (Le Rêve 1.0): sleep physiology by Whoop sleep-tracking wristband, double-blind placebo-controlled crossover. The settings on record: participant DR11; 7 days per treatment; relative to placebo. It is filed as in vivo, humans. The procedure:
Two independent clinical studies were completed to determine the effects of the CBD formulation on the structure and function of sleep physiology. Each of these independent studies were performed as a double-blind, placebo-controlled, randomized, crossover investigational study to determine if the CBD formulation influences sleep physiology in humans.
Primary sleep physiology data was collected from study participants in a completely unbiased manner from a non-invasive sleep-tracking wristband, called “Whoop” (https://www.whoop.com), which electronically collects and transmits sleep data from study participants in the comfort of their own beds. The wristband collects hundreds of data points per second from a 3-axis accelerometer, 3-axis gyroscope, and heart rate sensor. The wristband can accurately measure latency to fall asleep, total sleep time, sleep fragmentation, as well as the time spent in each sleep stage [Light, Slow Wave (Deep), Rapid Eye Movement (REM), and Awake]. The wristband also collects data using photoplethysmography (PPG), a technique that involves measuring blood flow by assessing superficial changes in blood volume. Heart rate, heart rate variability, and respiratory rate, can all be derived from PPG data, and all of these metrics are used in Whoop's sleep detection and staging algorithms. […]

The conditions of series [8]: given before simulation public speaking test; vs placebo; cited from earlier work.
The nature of series [9]: Clinical study 1: sleep survey / Participant Global Impression (PGI) questionnaire. The settings on record: participant DR11; sleep survey at end of treatment period. The series is classed as in vivo, humans. From the text: FIG. 7 is a graph showing the Study Participants Perceived That the CBD formulation Helped Them Sleep Better [p=0.13; (t test). n=23 responders per treatment group. Values are means±SEM]. At the end of each treatment period, study participants used a PGI questionnaire to determine if the treatment influenced their sleep relative to a baseline period before the treatments were initiated. Scoring Matrix: 1=Treatment Helped; 2-No Effect of Treatment; 3-Treatment Worsened.
In the first study, participants (N=23) were randomized to take a placebo control or the CBD formulation stated as Defined CBD in the Figures (˜300 mg CBD, ˜8 mg terpenes including linalool, myrcene, phytol, limonene, α-terpinene, α-terpineol, α-pinene, and β-caryophyllene) once daily, one hour before bedtime, for seven consecutive nights. […] Indeed, on average, over seven days of treatment, participant DR11 benefitted from nearly an extra hour of restorative sleep each night relative to the placebo control (FIG. 2B). Furthermore, participant DR11 was also able to perceive an improvement in their sleep quality and duration relative to the placebo control when they responded to a clinically validated sleep survey at the end of the treatment periods (as shown in Table 1).
At the end of each treatment period in the clinical studies, participants completed a modified version of a clinically validated questionnaire entitled the Participant Global Impression (PGI)^28. PGI assessments are based on the participant's global perception of the effects of treatment on sleep during each treatment period, as compared to their sleep during the baseline period of the study. […] Nevertheless, based on post-hoc power analysis performed, this effect would achieve statistical significance with a larger sample number.

For series [10] the following is noted: after one week of dosing; effect blocked by flumazenil; cited from earlier work.

On to `C=CC(C)(O)CCC=C(C)C` (centres unmarked) [linalool], for which, in the series with GABAA receptor [1], the “GABAA receptor activity in cells” value is “significantly augment”. Also, in [2], the sedation in animals entry was “induce sedation”. Also, the sleep result in [3] is “increases sleep”. In addition, in the series with GABAA receptor [4], the “binding to the GABA site or the benzodiazepine site of the GABAA receptor” value is given as “does not bind”.

As to `CCCCCc1cc(O)c2c(c1)OC(C)(C)[C@@H]1CCC(C)=C[C@@H]21` [THC, tetrahydrocannabinol], in series [5] (in vivo), the “anxiety-promoting properties in clinical studies” value is “anxiogenic”.

Regarding `C/C(=C\CO)CCC[C@H](C)CCC[C@H](C)CCCC(C)C` [phytol, (2E,7R,11R)-3,7,11,15-Tetramethylhexadec-2-en-1-ol], the sedation in animals entry in series [2] is listed as “induce sedation”. Besides, in [3], the “sedative effects blocked by flumazenil” value is reported as “blocked”. At SSADH, the “inhibition of SSADH” value is “inhibiting”.

Take `C=C1CC/C=C(\C)CC[C@@H]2[C@@H]1CC2(C)C` [β-caryophyllene]: the sedation in animals entry in [2] is listed as “induce sedation”. Besides, in [3], the locomotor activity entry is given as “did not affect”, the motor coordination result is listed as “did not affect” and the sleep entry is on record as “mildly promote sleep”.

As to `CC1=CCC(C(C)(C)O)CC1` (stereo not drawn) [α-terpineol, 2-(4-methylcyclohex-3-en-1-yl)propan-2-ol], the “GABAA receptor activity in cells” value in the series with GABAA receptor [1] is “increase”. The sedation in animals result in series [2] is on record as “induce sedation”.

Turning to cannabidiol [CBD alone], the “block of the anxiogenic effects of THC” value in series [5] (clinical studies) is reported as “can be blocked”. The “Hamilton Anxiety Rating Scale score” value in series [6] is given as 11. Besides, in series [7], the “increase in percentage of time spent in REM sleep” value is given as “about 4%” and the “increase in percentage of time spent in restorative sleep” value was “about 2%”. Moreover, in series [8], the “anxiety, cognitive impairment and discomfort” value was “significantly reduced”; the “hyper-alertness in anticipatory speech” value is “significantly decreased”. In series [9], the “Decreased Sleep Onset” value is “No”, the “Improved Sleep” value is reported as “No” and the “Lengthened Sleep Duration” value is reported as “No”.

As for `C=CC(=C)CCC=C(C)C` [myrcene, 7-methyl-3-methylene-1,6-octadiene], the “GABAA receptor activity in cells” value in the series with GABAA receptor [1] was “increased”. The sedation in animals entry in [2] is listed as “induce sedation”.

For `CC1=CCC2CC1C2(C)C` (stereo not drawn) [α-pinene, 2,6,6-trimethylbicyclo[3.1.1]hept-2-ene], in the series with GABAA receptor [1], the “GABAA receptor activity in cells” value is given as “increased”. In addition, the “effect in neurons blocked by flumazenil” value in the series with GABAA receptor [1] (neurons, flumazenil (benzodiazepine site antagonist)) is listed as “fully blocked”. For the same compound, the sedation in animals result in [2] is on record as “induce sedation”. In addition, in series [3], the “sedative effects blocked by flumazenil” value is “blocked”.

Take `C=C(C)C1CC=C(C)CC1` (centres unmarked) [limonene, 1-methyl-4-prop-1-en-2-ylcyclohexene]: the “brain GABA levels” value in series [10] is recorded as “increased”. Besides, the sedation in animals result in series [2] is “induce sedation”. Besides, in series [3], the locomotor activity entry was “reduced”, the motor coordination result was “impaired” and the sleep result is given as “induced sleep”.

Turning to `CC1=CC=C(C(C)C)CC1` [α-terpinene, 1-methyl-4-propan-2-ylcyclohexa-1,3-diene], in series [2], the sedation in animals entry is “induce sedation”.

Values taken from patent publication US20240285656A1, “CANNABIDIOL (CBD) AND TERPENE F[…] INCREASES RESTORATIVE SLEEP IN HUMANS” (Defined Research, Inc., priority 2022, published 2024).
